Measured values as given in ChEMBL document CHEMBL1153245, “A profile of the in vitro anti-tumor activity of imidazolium-based ionic liquids” (2010).

What was measured:
Assay type in all cases: functional
[1] = test system: A498; experiment: Anticancer activity against human A498 cells after 48 hrs by sulforhodamine B assay
[2] = test system: DU-145; experiment: Anticancer activity against human DU145 cells after 48 hrs by sulforhodamine B assay
[3] = test system: NCI-H226; experiment: Anticancer activity against human NCI-H226 cells assessed cell growth at 10 uM after 48 hrs by sulforhodamine B assay relative to control
[4] = test system: LOX IMVI; experiment: Anticancer activity against human LOXIMVI cells after 48 hrs by sulforhodamine B assay
[5] = test system: SK-MEL-5; experiment: Anticancer activity against human SK-MEL-5 cells assessed cell growth at 10 uM after 48 hrs by sulforhodamine B assay relative to control
[6] = test system: 786-0; experiment: Anticancer activity against human 786-0 cells after 48 hrs by sulforhodamine B assay
[7] = test system: SNB-75; experiment: Anticancer activity against human SNB75 cells after 48 hrs by sulforhodamine B assay
[8] = test system: K562; experiment: Anticancer activity against human K562 cells assessed cell growth at 10 uM after 48 hrs by sulforhodamine B assay relative to control
[9] = test system: MDA-MB-231; experiment: Anticancer activity against human MDA-MB-231 cells after 48 hrs by sulforhodamine B assay
[10] = test system: NCI-H522; experiment: Anticancer activity against human NCI-H522 cells after 48 hrs by sulforhodamine B assay
[11] = test system: SF-268; experiment: Anticancer activity against human SF268 cells after 48 hrs by sulforhodamine B assay
[12] = test system: M14; experiment: Anticancer activity against human M14 cells assessed cell growth at 10 uM after 48 hrs by sulforhodamine B assay relative to control
[13] = test system: SW-620; experiment: Anticancer activity against human SW620 cells after 48 hrs by sulforhodamine B assay
[14] = test system: A549; experiment: Anticancer activity against human A549 cells assessed cell growth at 10 uM after 48 hrs by sulforhodamine B assay relative to control
[15] = test system: MOLT-4; experiment: Anticancer activity against human MOLT4 cells assessed cell growth at 10 uM after 48 hrs by sulforhodamine B assay relative to control
[16] = test system: COLO 205; experiment: Anticancer activity against human COLO205 cells assessed cell growth at 10 uM after 48 hrs by sulforhodamine B assay relative to control
[17] = test system: SNB-19; experiment: Anticancer activity against human SNB19 cells after 48 hrs by sulforhodamine B assay
[18] = test system: HOP-62; experiment: Anticancer activity against human HOP62 cells after 48 hrs by sulforhodamine B assay
[19] = test system: NCI/ADR-RES; experiment: Anticancer activity against human NCI/ADR-RES cells after 48 hrs by sulforhodamine B assay
[20] = test system: UACC-62; experiment: Anticancer activity against human UACC62 cells assessed cell growth at 10 uM after 48 hrs by sulforhodamine B assay relative to control
[21] = test system: A498; experiment: Anticancer activity against human A498 cells assessed cell growth at 10 uM after 48 hrs by sulforhodamine B assay relative to control
[22] = test system: OVCAR-4; experiment: Anticancer activity against human OVCAR4 cells after 48 hrs by sulforhodamine B assay
[23] = test system: SK-MEL-5; experiment: Anticancer activity against human SK-MEL-5 cells after 48 hrs by sulforhodamine B assay
[24] = test system: OVCAR-3; experiment: Anticancer activity against human OVCAR-3 cells assessed cell growth at 10 uM after 48 hrs by sulforhodamine B assay relative to control
[25] = test system: CAKI-1; experiment: Anticancer activity against human Caki1 cells after 48 hrs by sulforhodamine B assay
[26] = test system: CCRF-CEM; experiment: Anticancer activity against human CCRF-CEM cells after 48 hrs by sulforhodamine B assay
[27] = test system: UACC-257; experiment: Anticancer activity against human UACC257 cells after 48 hrs by sulforhodamine B assay
[28] = test system: SR; experiment: Anticancer activity against human SR cells assessed cell growth at 10 uM after 48 hrs by sulforhodamine B assay relative to control
[29] = test system: EKVX; experiment: Anticancer activity against human EKVX cells after 48 hrs by sulforhodamine B assay
[30] = test system: NCI-H460; experiment: Anticancer activity against human NCI-H460 cells after 48 hrs by sulforhodamine B assay
[31] = test system: SF-295; experiment: Anticancer activity against human SF295 cells after 48 hrs by sulforhodamine B assay
[32] = test system: HCC 2998; experiment: Anticancer activity against human HCC2998 cells assessed cell growth at 10 uM after 48 hrs by sulforhodamine B assay relative to control
[33] = test system: HT-29; experiment: Anticancer activity against human HT-29 cells assessed cell growth at 10 uM after 48 hrs by sulforhodamine B assay relative to control
[34] = test system: NCI-H226; experiment: Anticancer activity against human NCI-H226 cells after 48 hrs by sulforhodamine B assay
[35] = test system: UACC-62; experiment: Anticancer activity against human UACC62 cells after 48 hrs by sulforhodamine B assay
[36] = test system: NCI/ADR-RES; experiment: Anticancer activity against human NCI/ADR-RES cells assessed cell growth at 10 uM after 48 hrs by sulforhodamine B assay relative to control
[37] = test system: UO-31; experiment: Anticancer activity against human UO31 cells after 48 hrs by sulforhodamine B assay
[38] = Anticancer activity against human Hs 578T cells after 48 hrs by sulforhodamine B assay
[39] = test system: OVCAR-3; experiment: Anticancer activity against human OVCAR-3 cells after 48 hrs by sulforhodamine B assay
[40] = test system: T47D; experiment: Anticancer activity against human T47D cells after 48 hrs by sulforhodamine B assay
[41] = test system: PC-3; experiment: Anticancer activity against human PC3 cells after 48 hrs by sulforhodamine B assay
[42] = read-out: LC50 (the source's name)

CCCCCCCCCCCC[n+]1ccn(C)c1.F[B-](F)(F)F
GI50 [1]: 7.53 µM | GI50 [2]: 10.9 µM | Activity [3]: 37.19% | GI50 [4]: 1.36 µM | CC50 [4, 42]: 34.9 µM | Activity [5]: -19.73% | GI50 [6]: 5.77 µM | GI50 [7]: 3.71 µM | CC50 [7, 42]: 90.3 µM | Activity [8]: 80.69% | GI50 [9]: 4.68 µM | CC50 [9, 42]: 64.2 µM | GI50 [10]: 2.96 µM | GI50 [11]: 5.98 µM | Activity [12]: 24.71% | GI50 [13]: 7.25 µM | Activity [14]: 37.89% | Activity [15]: 71.98% | Activity [16]: 15.15% | GI50 [17]: 10.9 µM | GI50 [18]: 9.48 µM | GI50 [19]: 39.7 µM | Activity [20]: 40.33% | Activity [21]: 35.81% | GI50 [22]: 2.59 µM | GI50 [23]: 1.66 µM | CC50 [23, 42]: 54.5 µM | Activity [24]: 55.26% | GI50 [25]: 2.99 µM | GI50 [26]: 1.62 µM | GI50 [27]: 3.06 µM | Activity [28]: 100.03% | GI50 [29]: 0.792 µM | GI50 [30]: 4.29 µM | GI50 [31]: 2.93 µM | Activity [32]: 28.68% | Activity [33]: 24.82% | GI50 [34]: 4.62 µM | GI50 [35]: 4.25 µM | Activity [36]: 76.53% | GI50 [37]: 15.9 µM | GI50 [38]: 6.11 µM | GI50 [39]: 3.33 µM | GI50 [40]: 4.31 µM | GI50 [41]: 2.08 µM
